Values of other authors, collected in US20260053818A1, “PHARMACEUTICAL FORMULATION FOR THE TREATMENT OF INFLAMMATORY CHANGES TO THE RECTUM” (Dr. Falk Pharma GmbH, priority 2015, published 2026).
In brackets after ≈: the same amount, converted by molar mass.

Conditions: Merck Index

CCCC1O[C@@H]2C[C@H]3[C@@H]4CCC5=CC(=O)C=C[C@]5(C)[C@H]4[C@@H](O)C[C@]3(C)[C@]2(C(=O)CO)O1 (stereo partly shown) [budesonide]
solubility in water: 14 µg/mL (≈ 32.5 µM)
